These results are taken from patent US20230125380A1, “Topical Compositions Comprising IRAK4 Inhibitors for Use in Treating Dermatological Conditions Characterised by Inflammation” (Dermira, Inc., priority 2019, published 2023).

The structures appear in SMILES notation.

For assay [1], the system named is human surgical skin (skin resident immune cells), LPS. Briefly: skin Resident Immune Cell Assay (sRICA), topical screening, TNFα protein expression. The format is cell-based. The settings on record: mean TNFα level in LPS treated samples set to 100%. Here is the method:
A skin Resident Immune Cell Assay (sRICA) was used to test compounds for reduction of inflammation. In this model, human surgical skin waste was cultured in a transwell system, with the dermis in contact with cell culture media and the stratum corneum exposed to air. To perform the assay, each human skin sample was defatted and dermatomed to 750 μm. Next, 8 mm punch biopsies were obtained and placed in a membrane transwell. The transwells were inserted into culture wells with complete media, and a cocktail of cytokines and antibodies were added to promote skin resident immune cell polarization. The transwells were treated with LPS as a positive control, a vehicle as a negative control, and various dual IRAK/TrkA inhibitors. TNFα protein expression was measured and the mean TNFa protein level in the LPS treated samples was set to 100%.
Overall results for all tested compounds are summarized below in Table 1. Results are expressed as a percentage of TNFα expression relative to the LPS treated sample.

Assay [2] concerns rosacea lesional (LS) skin. Briefly: MesoScale Discovery (MSD) immunoassay of treated lesional papulopustular rosacea biopsies. The format is cell-based, human. The method, then:
(§1) Five patients with mild-moderate, untreated, papulopustular rosacea (PPR) were enrolled and completed the study. Each patient donated 3 punch biopsies: 1 non-lesional (NL) and 2 lesional (LS) papules. Each biopsy was bisected, resulting in a total of 6 biopsy pieces. NL tissue was left untreated. LS tissue was either left untreated (vehicle), treated with a dual IRAK/TrkA inhibitor according to the present disclosure (1 uM or […]) or clobetasol (1 uM). Tissue was cultured in media at 37 C, 5% CO2 for 24 hours. After culture, the tissue was submerged in RNAlater for subsequent RNA isolation and RNA seq, and conditioned cell media was collected into 2×500 ul aliquots for proteomic analysis.
Next, the protein expression results obtained using the OLink platform were verified using MesoScale Discovery (MSD). MSD involves coating of carbon electrodes with multiple capture antibodies each coated onto discrete spots in the same plate, and is a multiplex platform that allows for absolute quantification of protein expression, as measured in pg/mL. For MSD quantification, 150 μl of conditioned cell media was analyzed using MSD platform using the human Cytokine 30-plex kit:
The protein expression analysis was repeated using the MSD platform.

Assay [3] has as its system rosacea lesional (LS) skin. Briefly: RNAseq of treated lesional papulopustular rosacea biopsies. The format is cell-based, human. The settings on record: LS rosacea biopsy, 24 hours culture, 1 μM and 0.5 μM. Here is the method: Five patients with mild-moderate, untreated, papulopustular rosacea (PPR) were enrolled and completed the study. Each patient donated 3 punch biopsies: 1 non-lesional (NL) and 2 lesional (LS) papules. Each biopsy was bisected, resulting in a total of 6 biopsy pieces. NL tissue was left untreated. […] Tissue was cultured in media at 37 C, 5% CO2 for 24 hours. After culture, the tissue was submerged in RNAlater for subsequent RNA isolation and RNA seq, and conditioned cell media was collected into 2×500 ul aliquots for proteomic analysis.
MMP-1 results are shown in FIG. 4A (RNAseq) and FIG. 4B (OLink); CXCL5 results are shown in FIG. 5A (RNAseq) and FIG. 5B (OLink); and IL-1(3 results are shown in FIG. 6A (RNAseq) and FIG. 6B (OLink).

Assay [4] concerns rosacea lesional (LS) skin. Briefly: OLink proteomics of treated lesional papulopustular rosacea biopsies. The class given is cell-based, human. The settings on record: LS rosacea biopsy. The method, then:
as §1
Proteomic analysis included use of the OLink platform. OLink proteomics, includes immunoassay, extension, preamplification, and detection by microfluidic qPCR, and has a high multiplex ability, but not absolute quantification of protein (only relative expression).
For the OLink proteomics platform, 40 μl of conditioned cell media was sent to OLINK proteomics for evaluation on their human Inflammation Panel (92 proteins):
Protein expression was measured from NL samples, untreated LS samples, and LS samples treated with the compound of Formula (Ia) at 1 μM, the compound of Formula (Ia) at 0.5 μM, or clobetasol at 1 μM. […] CXCL1, β-NGF, LIF, TGF-alpha, IL-8, and IL-6 are all proteins that have reduced expression in NL compared to LS samples.

Setting [5] is: 24 hours following treatment, 1 μM and 0.5 μM.

With `C=C(CC1=CC(C)C=C1C1CCC(CCC)C1=C)C1=CCC(c2cccc(CCC(C)(C)C)c2)=C1` (centres unmarked), the “TNFα Protein Expression (% relative to positive control)” value in assay [1] is given as 64.03%.

As to `Cn1cc(NC(=O)c2coc(-c3ccnc(NCC(F)F)c3)n2)c(N2CCN(CCO)C2=O)n1`, the “TNFα Protein Expression (% relative to positive control)” value in assay [1] is 72.75%.

In the case of `CC1C=C(CC(=O)c2coc(-c3ccnc(NCC(F)(F)F)c3)c2)C(C2CC(C)[C@H](C)C2=O)=C1` (some centres unmarked), the “TNFα Protein Expression (% relative to positive control)” value in assay [1] is 67.49%.

In the case of `Cn1cc(NC(=O)c2coc(-c3ccnc(NCC(F)(F)F)c3)n2)c(N2CCNC2=O)n1`, the “TNFα Protein Expression (% relative to positive control)” value in assay [1] is 59.13%.

Consider `C[C@H]1CCN(c2nn(C)cc2NC(=O)c2coc(-c3ccnc(NCC(F)(F)F)c3)n2)C1=O`, for which, in assay [1], the “TNFα Protein Expression (% relative to positive control)” value worked out at 92.45%.

`Cn1cc(NC(=O)c2coc(-c3ccnc(NCC4CC4)c3)n2)c(N2CCN(CCO)C2=O)n1`: in assay [1], the “TNFα Protein Expression (% relative to positive control)” value amounted to 74.41%.

Turning to `CC(C)N1CCN(c2nn(C)cc2NC(=O)c2coc(-c3ccnc(NCC(F)(F)F)c3)n2)C1=O`, the “TNFα Protein Expression (% relative to positive control)” value in assay [1] came out at 90.44%.

Consider `CN(C)CC1CN(c2nn(C)cc2NC(=O)c2coc(-c3ccnc(NCC(F)(F)F)c3)n2)C(=O)C1(C)C` (centres unmarked), for which the “TNFα Protein Expression (% relative to positive control)” value in assay [1] stood at 86.94%.

Turning to `CC(C)CN1CCN(c2nn(C)cc2NC(=O)c2coc(-c3ccnc(NCC(F)(F)F)c3)n2)C1=O`, the “TNFα Protein Expression (% relative to positive control)” value in assay [1] came out at 89.24%.

As to `Cn1cc(NC(=O)c2coc(-c3ccnc(NCC(F)(F)F)c3)n2)c(N2CC(CNC3CC3)C(C)(C)C2=O)n1` (centres unmarked), the “TNFα Protein Expression (% relative to positive control)” value in assay [1] was 72.95%.

`CC1(C)CCN(c2nn(C3COC3)cc2NC(=O)c2coc(-c3ccnc(NCC(F)(F)F)c3)n2)C1=O`: the “TNFα Protein Expression (% relative to positive control)” value in assay [1] was determined as 97.84%.

As for `Cn1cc(NC(=O)c2coc(-c3ccnc(NCC(F)(F)F)c3)n2)c(N2CCN(CCO)C2=O)n1` [Formula (Ia)], the “protein expression profile (MSD)” value in assay [2] (compared with NL and LS profiles) was “more similar to the NL profile versus the LS profile”. The “IL-10 protein expression (MSD)” value in assay [2] (p=0.002) was “decreased expression”. The “IL-8 protein expression (MSD)” value in assay [2] (p=0.056) was “decreased expression”. In addition, the “MCP-1 protein expression (MSD)” value in assay [2] (p=0.09) was “decreased expression”. Moreover, the “IL-4 protein expression (MSD)” value in assay [2] (p=0.12) is reported as “decreased expression”. Further, the “IL-6 protein expression (MSD)” value in assay [2] (p=0.13) is listed as “decreased expression”. In assay [2] (p=0.2), the “IL-5 protein expression (MSD)” value is listed as “decreased expression”. Moreover, in assay [3], the “CXCL5 RNA expression (RNAseq)” value is “significantly downregulated”, the “IL-1β RNA expression (RNAseq)” value is given as “significantly downregulated” and the “MMP-1 RNA expression (RNAseq)” value is on record as “significantly downregulated”. In addition, in assay [4] (24 hours following treatment), the “CXCL6 protein expression (OLink)” value is recorded as “decreased expression”, the “IL-24 protein expression (OLink)” value was “decreased expression”, the “MCP-1 protein expression (OLink)” value is given as “decreased expression” and the “NRTN protein expression (OLink)” value is listed as “decreased expression”. For the same molecule, in assay [4] (setting [5]), the “CXCL1 protein expression (OLink)” value is on record as “statistically significant decrease in expression”, the “IL-6 protein expression (OLink)” value is on record as “statistically significant decrease in expression”, the “IL-8 protein expression (OLink)” value is reported as “statistically significant decrease in expression” and the “LIF protein expression (OLink)” value is “statistically significant decrease in expression”. In addition, in assay [4] (setting [5]), the “TGF-alpha protein expression (OLink)” value is on record as “statistically significant decrease in expression” and the “β NGF protein expression (OLink)” value is “statistically significant decrease in expression”. Further, in assay [4] (24 hours, 1 μM and 0.5 μM), the “CXCL5 protein expression (OLink)” value is reported as “downregulated” and the “MMP-1 protein expression (OLink)” value is recorded as “downregulated”.

Consider `CNCC1CN(c2nn(C)cc2NC(=O)c2coc(-c3ccnc(NCC(F)(F)F)c3)n2)C(=O)C1(C)C` (centres unmarked) [drawing 29], for which the “TNFα Protein Expression (% relative to positive control)” value in assay [1] is listed as 92.45%.

With `CNCC1CN(c2nn(C)cc2NC(=O)c2coc(-c3ccnc(NCC(F)(F)F)c3)n2)C(=O)C1(C)C` (centres unmarked) [drawing 30], the “TNFα Protein Expression (% relative to positive control)” value in assay [1] worked out at 93.64%.
